# Source: ChEMBL document CHEMBL3244053, “Structural modification study of bis(substituted aminoalkylamino)anthraquinones. An evaluation of the relationship of the [2-[(2-hydroxyethyl)amino]ethyl]amino side chain with antineoplastic activity” (1979)
# The source made the active and inactive calls. The rule behind the calls is not given here.
# Tests used:
# [1] = system: P388; assay: Antineoplastic activity against mouse P388 cells allografted in CDF1 mouse assessed as survival at 50 mg/kg qd for 9 days; assay type: functional, organism-based; set-up: dose 50 mg/kg
# [2] = system: P388; assay: Antineoplastic activity against mouse P388 cells allografted in CDF1 mouse at 50 mg/kg qd for 9 days relative to control; assay type: functional
# [3] = system: P388; assay: Antineoplastic activity against mouse P388 cells allografted in CDF1 mouse at 100 mg/kg qd for 9 days relative to control; assay type: functional
# [4] = system: B16; assay: Antineoplastic activity against mouse B16 cells allografted in BDF1 mouse assessed as survival at 100 mg/kg qd for 9 days; assay type: functional, organism-based; set-up: dose 100 mg/kg
# [5] = system: B16; assay: Antineoplastic activity against mouse B16 cells allografted in BDF1 mouse at 100 mg/kg qd for 9 days relative to control; assay type: functional
# [6] = system: B16; assay: Antineoplastic activity against mouse B16 cells allografted in BDF1 mouse at 50 mg/kg qd for 9 days relative to control; assay type: functional
# [7] = system: B16; assay: Antineoplastic activity against mouse B16 cells allografted in BDF1 mouse assessed as survival at 25 mg/kg qd for 9 days; assay type: functional, organism-based; set-up: dose 25 mg/kg
# [8] = system: B16; assay: Antineoplastic activity against mouse B16 cells allografted in BDF1 mouse at 25 mg/kg qd for 9 days relative to control; assay type: functional
# [9] = system: P388; assay: Antineoplastic activity against mouse P388 cells allografted in CDF1 mouse assessed as survival at 100 mg/kg qd for 9 days; assay type: functional, organism-based; set-up: dose 100 mg/kg
# [10] = system: B16; assay: Antineoplastic activity against mouse B16 cells allografted in BDF1 mouse assessed as survival at 80 mg/kg qd for 9 days; assay type: functional, organism-based; set-up: dose 80 mg/kg
# [11] = system: B16; assay: Antineoplastic activity against mouse B16 cells allografted in BDF1 mouse at 80 mg/kg qd for 9 days relative to control; assay type: functional
# [12] = system: B16; assay: Antineoplastic activity against mouse B16 cells allografted in BDF1 mouse assessed as survival at 40 mg/kg qd for 9 days; assay type: functional, organism-based; set-up: dose 40 mg/kg
# [13] = system: B16; assay: Antineoplastic activity against mouse B16 cells allografted in BDF1 mouse at 40 mg/kg qd for 9 days relative to control; assay type: functional
# [14] = system: B16; assay: Antineoplastic activity against mouse B16 cells allografted in BDF1 mouse assessed as survival at 20 mg/kg qd for 9 days; assay type: functional, organism-based; set-up: dose 20 mg/kg
# [15] = system: B16; assay: Antineoplastic activity against mouse B16 cells allografted in BDF1 mouse at 20 mg/kg qd for 9 days relative to control; assay type: functional
# [16] = system: B16; assay: Antineoplastic activity against mouse B16 cells allografted in BDF1 mouse assessed as survival at 10 mg/kg qd for 9 days; assay type: functional, organism-based; set-up: dose 10 mg/kg
# [17] = system: B16; assay: Antineoplastic activity against mouse B16 cells allografted in BDF1 mouse at 10 mg/kg qd for 9 days relative to control; assay type: functional
# [18] = system: Colon 26; assay: Antineoplastic activity against mouse Colon 26 cells allografted in CDF1 mouse assessed as survival at 20 mg/kg qd for 9 days; assay type: functional, organism-based; set-up: dose 20 mg/kg
# [19] = system: Colon 26; assay: Antineoplastic activity against mouse Colon 26 cells allografted in CDF1 mouse at 20 mg/kg qd for 9 days relative to control; assay type: functional
# [20] = system: Colon 26; assay: Antineoplastic activity against mouse Colon 26 cells allografted in CDF1 mouse at 10 mg/kg qd for 9 days relative to control; assay type: functional
# [21] = system: L1210; assay: Antineoplastic activity against mouse L1210 cells allografted in CDF1 mouse assessed as survival at 15 mg/kg qd for 9 days; assay type: functional, organism-based; set-up: dose 15 mg/kg
# [22] = system: L1210; assay: Antineoplastic activity against mouse L1210 cells allografted in CDF1 mouse at 15 mg/kg qd for 9 days relative to control; assay type: functional
# [23] = system: L1210; assay: Antineoplastic activity against mouse L1210 cells allografted in CDF1 mouse at 30 mg/kg qd for 9 days relative to control; assay type: functional
# [24] = system: P388; assay: Antineoplastic activity against mouse P388 cells allografted in CDF1 mouse assessed as survival at 20 mg/kg qd for 9 days; assay type: functional, organism-based; set-up: dose 20 mg/kg
# [25] = system: P388; assay: Antineoplastic activity against mouse P388 cells allografted in CDF1 mouse at 20 mg/kg qd for 9 days relative to control; assay type: functional
# [26] = system: P388; assay: Antineoplastic activity against mouse P388 cells allografted in CDF1 mouse assessed as survival at 10 mg/kg qd for 9 days; assay type: functional, organism-based; set-up: dose 10 mg/kg
# [27] = system: P388; assay: Antineoplastic activity against mouse P388 cells allografted in CDF1 mouse at 10 mg/kg qd for 9 days relative to control; assay type: functional
# [28] = system: P388; assay: Antineoplastic activity against mouse P388 cells allografted in CDF1 mouse assessed as survival at 5 mg/kg qd for 9 days; assay type: functional, organism-based; set-up: dose 5 mg/kg
# [29] = system: P388; assay: Antineoplastic activity against mouse P388 cells allografted in CDF1 mouse at 5 mg/kg qd for 9 days relative to control; assay type: functional
# [30] = system: P388; assay: Antineoplastic activity against mouse P388 cells allografted in CDF1 mouse assessed as survival at 40 mg/kg qd for 9 days; assay type: functional, organism-based; set-up: dose 40 mg/kg
# [31] = system: P388; assay: Antineoplastic activity against mouse P388 cells allografted in CDF1 mouse at 40 mg/kg qd for 9 days relative to control; assay type: functional
# [32] = system: L1210; assay: Antineoplastic activity against mouse L1210 cells allografted in CDF1 mouse at 25 mg/kg qd for 9 days relative to control; assay type: functional
# [33] = system: B16; assay: Antineoplastic activity against mouse B16 cells allografted in BDF1 mouse assessed as survival at 50 mg/kg qd for 9 days; assay type: functional, organism-based; set-up: dose 50 mg/kg
# [34] = system: L1210; assay: Antineoplastic activity against mouse L1210 cells allografted in CDF1 mouse assessed as survival at 25 mg/kg qd for 9 days; assay type: functional, organism-based; set-up: dose 25 mg/kg
# [35] = system: B16; assay: Antineoplastic activity against mouse B16 cells allografted in BDF1 mouse assessed as survival at 200 mg/kg qd for 9 days; assay type: functional, organism-based; set-up: dose 200 mg/kg
# [36] = system: B16; assay: Antineoplastic activity against mouse B16 cells allografted in BDF1 mouse at 200 mg/kg qd for 9 days relative to control; assay type: functional
# [37] = system: Colon 26; assay: Antineoplastic activity against mouse Colon 26 cells allografted in CDF1 mouse assessed as survival at 80 mg/kg qd for 9 days; assay type: functional, organism-based; set-up: dose 80 mg/kg
# [38] = system: Colon 26; assay: Antineoplastic activity against mouse Colon 26 cells allografted in CDF1 mouse at 80 mg/kg qd for 9 days relative to control; assay type: functional
# [39] = system: Colon 26; assay: Antineoplastic activity against mouse Colon 26 cells allografted in CDF1 mouse assessed as survival at 40 mg/kg qd for 9 days; assay type: functional, organism-based; set-up: dose 40 mg/kg
# [40] = system: Colon 26; assay: Antineoplastic activity against mouse Colon 26 cells allografted in CDF1 mouse at 40 mg/kg qd for 9 days relative to control; assay type: functional
# [41] = system: L1210; assay: Antineoplastic activity against mouse L1210 cells allografted in CDF1 mouse assessed as survival at 160 mg/kg qd for 9 days; assay type: functional, organism-based; set-up: dose 160 mg/kg
# [42] = system: L1210; assay: Antineoplastic activity against mouse L1210 cells allografted in CDF1 mouse at 160 mg/kg qd for 9 days relative to control; assay type: functional
# [43] = system: L1210; assay: Antineoplastic activity against mouse L1210 cells allografted in CDF1 mouse assessed as survival at 80 mg/kg qd for 9 days; assay type: functional, organism-based; set-up: dose 80 mg/kg
# [44] = system: L1210; assay: Antineoplastic activity against mouse L1210 cells allografted in CDF1 mouse at 80 mg/kg qd for 9 days relative to control; assay type: functional
# [45] = system: L1210; assay: Antineoplastic activity against mouse L1210 cells allografted in CDF1 mouse assessed as survival at 40 mg/kg qd for 9 days; assay type: functional, organism-based; set-up: dose 40 mg/kg
# [46] = system: L1210; assay: Antineoplastic activity against mouse L1210 cells allografted in CDF1 mouse at 40 mg/kg qd for 9 days relative to control; assay type: functional
# [47] = system: P388; assay: Antineoplastic activity against mouse P388 cells allografted in CDF1 mouse assessed as survival at 80 mg/kg qd for 9 days; assay type: functional, organism-based; set-up: dose 80 mg/kg
# [48] = system: P388; assay: Antineoplastic activity against mouse P388 cells allografted in CDF1 mouse at 80 mg/kg qd for 9 days relative to control; assay type: functional
# [49] = system: P388; assay: Antineoplastic activity against mouse P388 cells allografted in CDF1 mouse assessed as survival at 30 mg/kg qd for 9 days; assay type: functional, organism-based; set-up: dose 30 mg/kg
# [50] = system: P388; assay: Antineoplastic activity against mouse P388 cells allografted in CDF1 mouse at 30 mg/kg qd for 9 days relative to control; assay type: functional
# [51] = system: P388; assay: Antineoplastic activity against mouse P388 cells allografted in CDF1 mouse assessed as survival at 6.25 mg/kg qd for 9 days; assay type: functional, organism-based; set-up: dose 6.25 mg/kg
# [52] = system: P388; assay: Antineoplastic activity against mouse P388 cells allografted in CDF1 mouse at 6.25 mg/kg qd for 9 days relative to control; assay type: functional
# [53] = system: P388; assay: Antineoplastic activity against mouse P388 cells allografted in CDF1 mouse assessed as survival at 12.5 mg/kg qd for 9 days; assay type: functional, organism-based; set-up: dose 12.5 mg/kg
# [54] = system: P388; assay: Antineoplastic activity against mouse P388 cells allografted in CDF1 mouse at 12.5 mg/kg qd for 9 days relative to control; assay type: functional
# [55] = system: P388; assay: Antineoplastic activity against mouse P388 cells allografted in CDF1 mouse assessed as survival at 25 mg/kg qd for 9 days; assay type: functional, organism-based; set-up: dose 25 mg/kg
# [56] = system: P388; assay: Antineoplastic activity against mouse P388 cells allografted in CDF1 mouse at 25 mg/kg qd for 9 days relative to control; assay type: functional
# [57] = system: P388; assay: Antineoplastic activity against mouse P388 cells allografted in CDF1 mouse assessed as survival at 15 mg/kg qd for 9 days; assay type: functional, organism-based; set-up: dose 15 mg/kg
# [58] = system: P388; assay: Antineoplastic activity against mouse P388 cells allografted in CDF1 mouse at 15 mg/kg qd for 9 days relative to control; assay type: functional
structure (smiles),measurement,setting,value
CN(C)CCC1=CC(=O)c2ccccc2C1=O,Activity,[1],Active
same,T/C,[2],100%
same,T/C,[3],97%
O=C1C=C(NCCNCCO)C(=O)c2ccccc21,T/C,[2],103%
same,T/C,[3],93%
CN(C)CCOc1cccc2c1C(=O)c1ccccc1C2=O,Activity,[1],Active
same,T/C,[2],107%
same,Activity,[4],Active
same,T/C,[5],104%
same,T/C,[6],97%
same,Activity,[7],Active
same,T/C,[8],93%
same,Activity,[9],Active
same,T/C,[3],109%
CN(C)CCNc1ccc(NCCN(C)C)c2c1C(=O)c1ccccc1C2=O,Activity,[10],Active
same,T/C,[11],146%
same,Activity,[12],Active
same,T/C,[13],148%
same,Activity,[14],Active
same,T/C,[15],142%
same,Activity,[16],Active
same,T/C,[17],125%
same,Activity,[18],Active
same,T/C,[19],113%
same,T/C,[20],123%
same,Activity,[21],Active
same,T/C,[22],117%
same,T/C,[23],150%
same,Activity,[24],Active
same,T/C,[25],163%
same,Activity,[26],Active
same,T/C,[27],149%
same,Activity,[28],Active
same,T/C,[29],133%
same,Activity,[30],Active
same,T/C,[31],202%
OCCNCCNc1ccnc2cc(Cl)ccc12,T/C,[32],111%
same,Activity,[1],Active
same,T/C,[2],116%
same,Activity,[4],Active
same,T/C,[5],110%
same,Activity,[33],Active
same,T/C,[6],99%
same,Activity,[34],Active
same,Activity,[9],Active
same,T/C,[3],118%
CN(C)CCNc1ccc(O)c2c1C(=O)c1ccccc1C2=O,Activity,[35],Active
same,T/C,[36],156%
same,Activity,[4],Active
same,T/C,[5],145%
same,Activity,[33],Active
same,T/C,[6],110%
same,Activity,[18],Active
same,T/C,[19],104%
same,Activity,[37],Active
same,T/C,[38],115%
same,Activity,[39],Active
same,T/C,[40],135%
same,Activity,[41],Active
same,T/C,[42],139%
same,Activity,[43],Active
same,T/C,[44],122%
same,Activity,[45],Active
same,T/C,[46],107%
same,Activity,[47],Active
same,T/C,[48],153%
same,Activity,[30],Active
same,T/C,[31],124%
same,Activity,[49],Active
same,T/C,[50],100%
CCN(CC)CCC1=C(Cl)C(=O)c2ccccc2C1=O,Activity,[51],Active
same,T/C,[52],96%
same,Activity,[53],Active
same,T/C,[54],101%
Cc1ccc(NCCNCCO)c2c(=O)c3ccccc3sc12,Activity,[49],Active
same,T/C,[50],136%
same,Activity,[55],Active
same,T/C,[56],120%
same,Activity,[57],Active
same,T/C,[58],123%
same,Activity,[53],Active
same,T/C,[54],113%
CN(C)CCC1=C(Cl)C(=O)c2ccccc2C1=O,Activity,[51],Active
same,T/C,[52],94%
same,Activity,[53],Active
same,T/C,[54],97%
